# Laboratory results as given in US5707966A, “Antithrombotic agents” (Eli Lilly and Company, priority 1995, dated 1998).
# Where a name gives a salt, the structure may show the parent alone. Read-outs that look alike come from different tables or passages of the source.
# Columns and labels:
# [1] = target: T1, factor Xa (Homo sapiens, UniProt P00742); assay: Kass with factor Xa, chromogenic substrate; type: biochemical
# T1 construct: Human factors X, Xa, IXa, XIa, and XIIa are purchased; purchased Enzyme Research Laboratories, South Bend, Ind
# [2] = target: Human Thrombin (Homo sapiens, UniProt P00734); assay: Inhibition of amidase activity of thrombin (Kass); type: biochemical
# [3] = target: T2, t-PA (Homo sapiens, UniProt P00750); assay: Kass with t-PA, chromogenic substrate; type: biochemical; settings: substrate H-D-Ile-Pro-Arg-p-nitroanilide
# T2 construct: purchased American Diagnostica, Greenwich, Conn
# [4] = target: T3, Human plasmin (Homo sapiens, UniProt P00747); assay: Kass with plasmin, chromogenic substrate; type: biochemical
# T3 construct: Human plasmin is purchased; purchased Boehringer Mannheim, Indianapolis, Ind
# [5] = target: T4, Bovine trypsin (Bos taurus, UniProt P00760); assay: Kass with trypsin, chromogenic substrate; type: biochemical
# T4 construct: Bovine trypsin is purchased; purchased Worthington Biochemicals, Freehold, N.J
# T4 sequence (P00760 24-246): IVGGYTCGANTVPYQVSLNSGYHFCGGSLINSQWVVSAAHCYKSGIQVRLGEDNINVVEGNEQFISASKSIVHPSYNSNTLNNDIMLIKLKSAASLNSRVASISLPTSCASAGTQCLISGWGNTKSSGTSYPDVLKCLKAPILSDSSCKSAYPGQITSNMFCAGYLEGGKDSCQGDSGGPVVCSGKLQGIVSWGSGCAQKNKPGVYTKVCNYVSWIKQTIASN
# [6] = Index of bioavailability (% Relative Activity, plasma TT AUC oral vs i.v.); type: in vivo; settings: dose-adjusted AUC of plasma TT, p.o. vs i.v. bolus
# Experimental: Parke Davis) at 37° C. […] Assays are done in duplicate and averaged. […] Each sample population represented alternating sequential time points.
# [7] = test system: Human plasma; assay: Human plasma anticoagulation, thrombin time (TT); type: biochemical; settings: concentration required to double the thrombin time, linear extrapolation
# Summary of the method: (§1)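 Prolongation of human plasma clotting was measured for PT (thromboplastin reagent), APTT (Actin, 120 s, then 0.02M CaCl2) and TT (bovine thrombin, 10 NIH units/mL). Concentration needed for a doubled time was estimated by linear extrapolation.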
# [8] = test system: Human plasma; assay: Human plasma anticoagulation, activated partial thromboplastin time (APTT); type: biochemical; settings: concentration required to double the APTT, linear extrapolation
# Summary of the method: as §1
# [9] = test system: Human plasma; assay: Human plasma anticoagulation, prothrombin time (PT); type: biochemical; settings: concentration required to double the PT, linear extrapolation
# Summary of the method: as §1
# [10] = substrate N-Benzoyl-Ile-Glu-Gly-Arg-p-nitroanilide
# [11] = mean over a range of concentrations, […]
# [12] = substrate H-D-Val-Leu-Lys-p-nitroanilide
# [13] = substrate N-Benzoyl-Phe-Val-Arg-p-nitroanilide
# T1 sequence (P00742 235-488 limits assumed): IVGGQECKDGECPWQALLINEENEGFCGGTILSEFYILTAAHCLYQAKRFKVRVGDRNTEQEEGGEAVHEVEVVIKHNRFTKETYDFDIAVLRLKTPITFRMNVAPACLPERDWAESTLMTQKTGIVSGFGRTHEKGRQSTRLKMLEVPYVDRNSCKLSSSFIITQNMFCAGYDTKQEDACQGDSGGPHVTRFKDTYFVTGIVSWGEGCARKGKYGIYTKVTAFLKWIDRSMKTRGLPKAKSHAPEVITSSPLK
# T1 sequence (P00742 41-179 partner limits assumed): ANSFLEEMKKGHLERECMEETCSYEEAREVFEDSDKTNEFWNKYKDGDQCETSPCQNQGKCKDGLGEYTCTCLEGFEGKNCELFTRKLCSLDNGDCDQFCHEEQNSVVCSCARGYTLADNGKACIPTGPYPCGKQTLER
# T3 sequence (P00747 97-810): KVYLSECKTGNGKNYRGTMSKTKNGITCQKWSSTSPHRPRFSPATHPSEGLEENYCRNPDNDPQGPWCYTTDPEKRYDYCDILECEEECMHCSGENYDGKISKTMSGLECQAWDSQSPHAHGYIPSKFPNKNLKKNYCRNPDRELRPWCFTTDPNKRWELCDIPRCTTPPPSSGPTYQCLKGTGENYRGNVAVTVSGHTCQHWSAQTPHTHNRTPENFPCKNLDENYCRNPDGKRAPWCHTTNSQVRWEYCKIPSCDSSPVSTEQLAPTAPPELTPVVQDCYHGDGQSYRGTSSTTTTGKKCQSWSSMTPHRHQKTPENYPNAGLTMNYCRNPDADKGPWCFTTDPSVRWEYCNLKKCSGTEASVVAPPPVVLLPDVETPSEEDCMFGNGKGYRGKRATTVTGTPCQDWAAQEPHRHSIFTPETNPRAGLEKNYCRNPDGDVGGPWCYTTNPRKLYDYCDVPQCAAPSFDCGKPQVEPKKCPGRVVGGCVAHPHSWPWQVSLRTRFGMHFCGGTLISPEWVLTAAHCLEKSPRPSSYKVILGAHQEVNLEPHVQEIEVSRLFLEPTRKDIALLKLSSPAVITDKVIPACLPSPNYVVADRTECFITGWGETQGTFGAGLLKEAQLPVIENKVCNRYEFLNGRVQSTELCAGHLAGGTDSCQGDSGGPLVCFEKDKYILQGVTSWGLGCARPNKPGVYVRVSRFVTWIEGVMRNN
# T3 sequence (P00747 97-580 partner limits assumed): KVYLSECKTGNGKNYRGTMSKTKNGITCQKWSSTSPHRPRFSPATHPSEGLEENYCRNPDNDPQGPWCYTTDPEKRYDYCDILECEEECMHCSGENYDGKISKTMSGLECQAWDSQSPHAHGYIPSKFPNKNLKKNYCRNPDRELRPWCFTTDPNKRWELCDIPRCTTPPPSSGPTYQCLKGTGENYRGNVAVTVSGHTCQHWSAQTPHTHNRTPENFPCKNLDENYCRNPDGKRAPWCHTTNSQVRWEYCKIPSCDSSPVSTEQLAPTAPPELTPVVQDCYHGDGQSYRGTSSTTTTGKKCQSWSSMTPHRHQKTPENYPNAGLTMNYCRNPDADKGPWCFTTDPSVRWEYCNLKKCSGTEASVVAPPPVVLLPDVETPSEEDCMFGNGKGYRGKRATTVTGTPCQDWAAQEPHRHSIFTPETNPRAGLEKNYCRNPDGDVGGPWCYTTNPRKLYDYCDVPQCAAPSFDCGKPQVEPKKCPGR
# T2 sequence (P00750 36-562): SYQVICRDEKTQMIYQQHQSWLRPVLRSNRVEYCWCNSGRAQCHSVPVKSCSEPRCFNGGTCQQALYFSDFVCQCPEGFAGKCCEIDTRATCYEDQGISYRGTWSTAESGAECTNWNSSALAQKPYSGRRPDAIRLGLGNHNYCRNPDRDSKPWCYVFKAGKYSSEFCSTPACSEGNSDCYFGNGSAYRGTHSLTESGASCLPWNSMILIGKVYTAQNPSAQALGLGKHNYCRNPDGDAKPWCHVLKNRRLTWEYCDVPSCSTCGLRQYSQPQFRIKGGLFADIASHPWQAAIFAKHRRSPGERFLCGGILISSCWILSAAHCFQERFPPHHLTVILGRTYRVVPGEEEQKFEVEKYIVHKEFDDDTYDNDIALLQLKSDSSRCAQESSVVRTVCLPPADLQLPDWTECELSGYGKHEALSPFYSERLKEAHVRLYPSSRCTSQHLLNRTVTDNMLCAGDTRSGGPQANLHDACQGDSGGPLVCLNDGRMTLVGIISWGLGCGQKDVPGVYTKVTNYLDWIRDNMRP
Molecule,Kass Xa [1],Kass Human Thrombin [2],Kass t-PA [3],Kass Plasmin [4],Kass Trypsin [5],% oral/i.v. activity (Rat) [6],Human Plasma Anticoagulation 2× Clotting time TT [7],"Kass Xa [1, 10]","Kass Human Thrombin [2, 11]","Kass Plasmin [4, 12]","Kass Trypsin [5, 13]",Human Plasma Anticoagulation 2× Clotting time APTT [8],Human Plasma Anticoagulation 2× Clotting time PT [9]
"CCS(=O)(=O)N[C@H](Cc1ccccc1)C(=O)N1CCC[C@H]1C(=O)NCCCCNC(=N)N [Example 1, EtSO2 -D-Phe-Pro-Agm.HCl]",0.0017,3.3,0.082 × 10^6 (L/mole),0.010,0.38,8%,250 ng/mL,,,,,,
"N=C(N)N1CCC(CNC(=O)[C@@H]2CCCN2C(=O)[C@@H](CC2CCCCC2)NCC(=O)O)CC1 [Example 56, HO2 CCH2 -D-Cha-Pro-4-NHCH2 -1-amidinopiperidine.HCl]",,,< 0.001 × 10^6 (L/mole),,,,5 ng/mL,0.20 × 10^6 (L/mole),490 × 10^6 (L/mole),0.01 × 10^6 (L/mole),3.6 × 10^6 (L/mole),160 ng/mL,200 ng/mL
"N=C(N)N1CCC(CCNC(=O)[C@@H]2CCCN2C(=O)[C@@H](CC2CCCCC2)NCC(=O)O)CC1 [Example 57, HO2 CCH2 -D-Cha-Pro-4-NHCH2 CH2 -1-amidinopiperidine.HCl]",,39,< 0.001 × 10^6 (L/mole),,,,14 ng/mL,0.01 × 10^6 (L/mole),,0.01 × 10^6 (L/mole),0.24 × 10^6 (L/mole),360 ng/mL,340 ng/mL
"O=C(O)CN[C@H](CC1CCCCC1)C(=O)N1CCC[C@H]1C(=O)NCC1=CCNCC1 [Example 58, HO2 CCH2 -D-Cha-Pro-4-NHCH2 -3,4-dehydro-piperidine.HCl]",,,< 0.001 × 10^6 (L/mole),,,,710 ng/mL,< 0.001 × 10^6 (L/mole),0.60 × 10^6 (L/mole),< 0.001 × 10^6 (L/mole),0.40 × 10^6 (L/mole),"14,300 ng/mL","11,400 ng/mL"
"O=C(O)CN[C@H](CC1CCCCC1)C(=O)N1CCC[C@H]1C(=O)NCCC1=CCNCC1 [Example 59, HO2 CCH2 -D-Cha-Pro-4-NHCH2 CH2 -3,4-dehydro-piperidine.HCl]",,,< 0.001 × 10^6 (L/mole),,,,420 ng/mL,< 0.001 × 10^6 (L/mole),1.10 × 10^6 (L/mole),< 0.001 × 10^6 (L/mole),0.21 × 10^6 (L/mole),"5,500 ng/mL","7,000 ng/mL"
"O=C(O)CN[C@H](CC1CCCCC1)C(=O)N1CCC[C@H]1C(=O)NCCCC1=CCNCC1 [Example 60, HO2 CCH2 -D-Cha-Pro-4-NHCH2 CH2 CH2 -3,4-dehydro-piperidine.HCl]",,,< 0.001 × 10^6 (L/mole),,,,"3,200 ng/mL",< 0.001 × 10^6 (L/mole),0.24 × 10^6 (L/mole),< 0.001 × 10^6 (L/mole),0.03 × 10^6 (L/mole),"22,200 ng/mL","77,700 ng/mL"
"N=C(N)NCCCCNC(=O)[C@@H]1CCCN1C(=O)[C@@H]1NCC[C@H]2CCCC[C@H]21 [Example 61, N-[4-[(aminoiminomethyl)amino]butyl]-1-[[(4aR,8aR)-decahydro-1(R)-isoquinolinyl]carbonyl]-1-prolinamide trihydrochloride]",,,0.008 × 10^6 (L/mole),,,,45 ng/mL,0.03 × 10^6 (L/mole),63 × 10^6 (L/mole),0.004 × 10^6 (L/mole),1.0 × 10^6 (L/mole),679 ng/mL,756 ng/mL
D-hPro-N(PhCH2 CH2)Gly-p-NHCH2 --C6 H4 C(NH)NH2.2HCl [Example 21],,,0.002 × 10^6 (L/mole),,,,160 ng/mL,0.62 × 10^6 (L/mole),3.6 × 10^6 (L/mole),0.031 × 10^6 (L/mole),0.96 × 10^6 (L/mole),"2,000 ng/mL","1,000 ng/mL"
D-hPro-Pro(4-cis-PhO)-p-NHCH2 --C6 H4 C(NH)NH2.2HCl [Example 22],,,0.004 × 10^6 (L/mole),,,,170 ng/mL,0.043 × 10^6 (L/mole),3.0 × 10^6 (L/mole),0.042 × 10^6 (L/mole),8.5 × 10^6 (L/mole),"2,300 ng/mL","1,000 ng/mL"
D-hPro-Pro-p-NHCH2 C6 H4 C(NH)NH2.HCl [Example 17],,,0.0034 × 10^6 (L/mole),,,,26 ng/mL,0.049 × 10^6 (L/mole),33 × 10^6 (L/mole),0.024 × 10^6 (L/mole),3.8 × 10^6 (L/mole),370 ng/mL,400 ng/mL
EtSO2 -D-Phe-Pro-p-NHCH2 --C6 H4 C(=NH)NH2.HCl [Example 23],,,0.31 × 10^6 (L/mole),,,,7 ng/mL,0.14 × 10^6 (L/mole),770 × 10^6 (L/mole),0.44 × 10^6 (L/mole),21 × 10^6 (L/mole),86 ng/mL,120 ng/mL
HOOCCH2 -D-Phe-Pro-p-NHCH2 C6 H4 C(NH)NH2.HCl [Example 46],0.07,240,0.01 × 10^6 (L/mole),0.13,,,2 ng/mL,,,,48 × 10^6 (L/mole),67 ng/mL,77 ng/mL
